Results published in patent publication US11299460B2, “MDM2 inhibitor, preparation method therefor, pharmaceutical composition thereof and use thereof” (SHANGHAI LONGWOOD BIOPHARMACEUTICALS CO., LTD., priority 2018, dated 2022).

How the values were obtained:
[1] = tested on: p21 transcripts in SJSA-1 cells; assay: p21 assay (QRT-PCR of p21 transcripts in SJSA-1 cells); type: cell-based, human; conditions: cell assay (SJSA-1 cell), p21 induction, 7 hours incubation
Text: Inhibition of the interaction between hMDM2 and p53 results in the activation of the p53 pathway via the stabilization and accumulation of p53. P53 activates the transcription of many genes, one of which is p21<WAFT/CIP1>. To evaluate the potency of hMDM2 inhibitors, quantitative reverse transcription polymerase chain reaction (QRT PCR) was used to measure the level of p21 transcripts of compound related cells relative to that of control cells treated with dimethyl sulfoxide (DMSO).
In the first day, SJSA-1 cells were inoculated into 100 μL growth medium (RPMI1640; 10 mM HEPES; 1 mM sodium pyruvate; 1× penicillin streptomycin glutamine (PSQ) and 10% FBS, all reagents were obtained from Invitrogen) at a density of 3×10^4 cells in 96-well cell culture plate. The cells were cultured overnight at 37° C. and 5% CO2 atmosphere.
In the second day, hMDM2 inhibitor was gradient diluted in DMSO(Sigma-Aldrich; St. Louis, Mo.). 5 μl of each compound dilution were added into 245 μl filtered assay medium (RPMI1640, 10% FBS, 10 mM HEPES, 1 mM sodium pyruvate and 1×PSQ). Or the assay was conducted with the presence of 10% human serum or 10% mouse serum, or without serum. Growth medium was removed from inoculated SJSA-1 cell culture plate and replaced by 100 μL assay medium for each well. Then 100 μL culture medium containing diluted inhibitor was added into each well to a final volume 200 μL. The final concentration of the compound was in the range of 0.049 μm-50 μm by dose titration with DMSO as control. The cells were incubated at 37° C. and 5% CO2 for 7 hours with the presence of inhibitor. When incubation was completed, growth medium was removed from cells and the plate was stored at −80° C.
In the third day, giagen BioRobot Universal workstation was used to purify total RNA from SJSA-1 cells treated with inhibitor and DMSO respectively. The purification procedure herein was according to RNeasy96BioRobot8000 test kit provided by Qiagen, Valencia, Calif.
To measure the level of existing p21 transcripts, QRT-PCR was introduced. The levels of p21, housekeeping genes and glyceraldehyde 3-phosphate dehydrogenase (GAPDH) were determined by the total RNA from each inhibitor- or DMSO-treated well by duplicated test. The QRT-PCR reaction was performed on the Applied Biosystems prism 7900ht instrument using the relative quantitative (ΔΔ Ct) method according to the following cycle conditions: 48° C. for 30 minutes, then 95° C. for 10 minutes, and then was 40 cycles consisting of 95° C. for 15 seconds and 60° C. for 1 minute. The data were analyzed by using Applied Biosystems SDS2.2 software, with GAPDH as inner control and DMSO treated samples as calibrators. SDS2.2 software calculated the relative quantification (RQ) or increased fold of p21 level relative to DMSO control for each treated sample. The maximum (100%) p21 induction fold was defined by the maximum value of the fitting curve of the reference compound. The p21 induction fold of each inhibitor dose tested was converted to a value representing the percentage of the maximum value. XLFit software (ID business solutions, Alameda, Calif.) was used to make dose-response curve to calculate the IC50 transit value of each inhibitor tested.

GST-hMDM2 (aa1-188) = biological target: T1, GST-hMDM2 (aa1-188) (Homo sapiens, UniProt Q00987); assay: Homogeneous time resolved fluorometry (HTRF assay), hMDM2/p53 interaction; type: binding; conditions: HTRF analysis; GST-hMDM2 (aa1-188) / biotinylated-p53 (aa1-83)
T1 construct: The amino acid residues 1-188 of human MDM2 were expressed as GST-hMDM2 fusion protein; made in house; host or cells: E. coli
Method: Residues 1-83 of human p53 were expressed as avitag <TM>-trxa-6×his fusion protein (biotinlabelled p53) in E. coli. Each protein was separated from cell homogenate by affinity chromatography.
Specifically, 10 μL GST-hMDM2 was incubated with 10 uL diluted compound in 10% DMSO for 20 minutes at room temperature. 20 μL biotinlabelled-p53 was added to the mixture of GST-hMDM2 and then incubated at room temperature for 60 min. A 10 μL detection buffer consisting of SA-XLent, anti-GST cavernous compound antibody and KF was added to the reaction solution consisting of GST-hMDM2, biotinlabelled-p53 and the compound and was placed at room temperature to achieve equilibrium and maintained for more than 4 h. The final concentration of DMSO in the reaction solution was 2%. Time resolved fluorescence were measured on a microplate multi label reader. The inhibition percentage was calculated relative to nutlin-3.

T1 sequence (Q00987 1-188): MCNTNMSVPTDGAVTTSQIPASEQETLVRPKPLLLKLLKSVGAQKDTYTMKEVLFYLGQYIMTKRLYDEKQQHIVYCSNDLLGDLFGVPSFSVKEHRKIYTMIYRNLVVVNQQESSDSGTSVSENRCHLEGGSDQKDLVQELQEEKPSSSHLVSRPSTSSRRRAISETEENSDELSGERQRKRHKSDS

SMILES | IC50 ([1]; Homo sapiens, SJSA-1, 7 h) [nM] | IC50 (GST-hMDM2 (aa1-188)) [nM] | IC50 [1] [nM]
CC(C)[C@@H](CS(=N)(=O)C(C)C)N1C(=O)[C@@](C)(CC(=O)O)C[C@H](c2cccc(Cl)c2)[C@H]1c1ccc(Cl)cc1 (stereo partly drawn) [Compound 002] | – | < 10 | < 1000
CC(C)[C@@H](CS(=N)(=O)C(C)C)N1C(=O)[C@@](C)(CC(=O)NC23CCC(C(=O)O)(CC2)CC3)C[C@H](c2cccc(Cl)c2)[C@H]1c1ccc(Cl)cc1 (stereo partly drawn) [Compound 010] | 1000 to 10000 | 10 to 100 | –
CC(C)[C@@H](CS(=N)(=O)C(C)C)N1C(=O)[C@@](C)(CC(=O)Nc2ccccc2)C[C@H](c2cccc(Cl)c2)[C@H]1c1ccc(Cl)cc1 (stereo partly drawn) [Compound 015] | 1000 to 10000 | 10 to 100 | –
CC(C)[C@@H](CS(=N)(=O)C(C)C)N1C(=O)[C@@](C)(CC(=O)Nc2cccc(C(F)(F)F)c2)C[C@H](c2cccc(Cl)c2)[C@H]1c1ccc(Cl)cc1 (stereo partly drawn) [Compound 016] | 1000 to 10000 | > 100 | –
CC(C)[C@@H](CS(=N)(=O)C(C)C)N1C(=O)[C@@](C)(CC(=O)Nc2ccc(F)c(Br)c2)C[C@H](c2cccc(Cl)c2)[C@H]1c1ccc(Cl)cc1 (stereo partly drawn) [Compound 017] | 1000 to 10000 | > 100 | –
CC(C)[C@@H](CS(=N)(=O)C(C)C)N1C(=O)[C@@](C)(CC(=O)NS(C)(=O)=O)C[C@H](c2cccc(Cl)c2)[C@H]1c1ccc(Cl)cc1 (stereo partly drawn) [Compound 018] | 1000 to 10000 | 10 to 100 | –
CC(C)[C@@H](CS(=N)(=O)C(C)C)N1C(=O)[C@@](C)(CC(=O)NS(=O)(=O)C2(C)CC2)C[C@H](c2cccc(Cl)c2)[C@H]1c1ccc(Cl)cc1 (stereo partly drawn) [Compound 019] | 1000 to 10000 | 10 to 100 | –
CC(C)[C@@H](CS(=N)(=O)C(C)C)N1C(=O)[C@@](C)(CC(=O)NS(=O)(=O)c2ccccc2)C[C@H](c2cccc(Cl)c2)[C@H]1c1ccc(Cl)cc1 (stereo partly drawn) [Compound 020] | 1000 to 10000 | 10 to 100 | –
Cc1ccc(S(=O)(=O)NC(=O)C[C@@]2(C)C[C@H](c3cccc(Cl)c3)[C@@H](c3ccc(Cl)cc3)N([C@H](CS(=N)(=O)C(C)C)C(C)C)C2=O)cc1 (stereo partly drawn) [Compound 021] | 1000 to 10000 | 10 to 100 | –
CC(C)[C@@H](CS(=N)(=O)C(C)C)N1C(=O)[C@@](C)(CC(=O)NS(=O)(=O)c2ccc(F)cc2)C[C@H](c2cccc(Cl)c2)[C@H]1c1ccc(Cl)cc1 (stereo partly drawn) [Compound 022] | 1000 to 10000 | 10 to 100 | –
COc1ccc(S(=O)(=O)NC(=O)C[C@@]2(C)C[C@H](c3cccc(Cl)c3)[C@@H](c3ccc(Cl)cc3)N([C@H](CS(=N)(=O)C(C)C)C(C)C)C2=O)cc1 (stereo partly drawn) [Compound 023] | < 1000 | 10 to 100 | –
CC(C)[C@@H](CS(=N)(=O)C(C)C)N1C(=O)[C@@](C)(CC(=O)NS(=O)(=O)c2ccc(C#N)cc2)C[C@H](c2cccc(Cl)c2)[C@H]1c1ccc(Cl)cc1 (stereo partly drawn) [Compound 024] | 1000 to 10000 | 10 to 100 | –
CC(C)[C@@H](CS(=O)(=O)C(C)C)N1C(=O)[C@@](C)(CC(=O)NS(=N)(=O)C2CC2)C[C@H](c2cccc(Cl)c2)[C@H]1c1ccc(Cl)cc1 (stereo partly drawn) [Compound 025] | 1000 to 10000 | 10 to 100 | –
CC(C)[C@@H](CS(=O)(=O)C(C)C)N1C(=O)[C@@](C)(CC(=O)NS(=N)(=O)C2(C)CC2)C[C@H](c2cccc(Cl)c2)[C@H]1c1ccc(Cl)cc1 (stereo partly drawn) [Compound 028B] | – | 10 to 100 | 1000 to 10000
Cc1ccc(S(=N)(=O)NC(=O)C[C@@]2(C)C[C@H](c3cccc(Cl)c3)[C@@H](c3ccc(Cl)cc3)N([C@H](CS(=O)(=O)C(C)C)C(C)C)C2=O)cc1 (stereo partly drawn) [Compound 029] | 1000 to 10000 | > 100 | –
CC(=O)N=[S@@](=O)(C[C@H](C(C)C)N1C(=O)[C@@](C)(CC(=O)O)C[C@H](c2cccc(Cl)c2)[C@H]1c1ccc(Cl)cc1)C(C)C [Compound 039] | < 1000 | < 10 | –

More lines, now with the values ahead:

IC50 ([1]; Homo sapiens, SJSA-1, 7 h) [nM] | IC50 (GST-hMDM2 (aa1-188)) [nM] | IC50 [1] [nM] | SMILES
< 1000 | < 10 | – | CC(C)[C@@H](CS(=O)(=NC#N)C(C)C)N1C(=O)[C@@](C)(CC(=O)O)C[C@H](c2cccc(Cl)c2)[C@H]1c1ccc(Cl)cc1 (single isomer, unassigned) [Compound 006]
< 1000 | < 10 | – | CC(C)[C@@H](CS(=N)(=O)C(C)C)N1C(=O)[C@@](C)(CC(=O)O)C[C@H](c2cccc(Cl)c2)[C@H]1c1ccc(Cl)cc1 (stereo partly drawn) [Compound 001]
< 1000 | < 10 | – | CN=S(=O)(C[C@H](C(C)C)N1C(=O)[C@@](C)(CC(=O)O)C[C@H](c2cccc(Cl)c2)[C@H]1c1ccc(Cl)cc1)C(C)C (stereo partly drawn) [Compound 003, 2-((3R,5R,6S)-5-(3-chlorophenyl)-6-(4-chlorophenyl)-3-methyl-1-((2S)-3-methyl-1-(N-methyl-2-propylsulfonamido)butyl-2-)-2-oxo-piperidine-3-yl)acetic acid]
1000 to 10000 | < 10 | – | CC(C)[C@@H](CS(=N)(=O)C(C)C)N1C(=O)[C@@](C)(CC(=O)Nc2ccc(C(=O)O)cc2)C[C@H](c2cccc(Cl)c2)[C@H]1c1ccc(Cl)cc1 (stereo partly drawn) [Compound 007]
< 1000 | < 10 | – | COc1cc(NC(=O)C[C@@]2(C)C[C@H](c3cccc(Cl)c3)[C@@H](c3ccc(Cl)cc3)N([C@H](CS(=N)(=O)C(C)C)C(C)C)C2=O)ccc1C(=O)O (stereo partly drawn) [Compound 008]
1000 to 10000 | < 10 | – | COc1cc(C(=O)O)ccc1NC(=O)C[C@@]1(C)C[C@H](c2cccc(Cl)c2)[C@@H](c2ccc(Cl)cc2)N([C@H](CS(=N)(=O)C(C)C)C(C)C)C1=O (stereo partly drawn) [Compound 009]
1000 to 10000 | 10 to 100 | – | CC(C)[C@@H](CS(=N)(=O)C(C)C)N1C(=O)[C@@](C)(CC(=O)N[C@H]2CC[C@H](O)CC2)C[C@H](c2cccc(Cl)c2)[C@H]1c1ccc(Cl)cc1 (stereo partly drawn) [Compound 011]
1000 to 10000 | > 100 | – | CC(C)[C@@H](CS(=N)(=O)C(C)C)N1C(=O)[C@@](C)(CC(=O)Nc2cccc(Br)c2)C[C@H](c2cccc(Cl)c2)[C@H]1c1ccc(Cl)cc1 (stereo partly drawn) [Compound 012]
1000 to 10000 | > 100 | – | Cc1c(Br)cccc1NC(=O)C[C@@]1(C)C[C@H](c2cccc(Cl)c2)[C@@H](c2ccc(Cl)cc2)N([C@H](CS(=N)(=O)C(C)C)C(C)C)C1=O (stereo partly drawn) [Compound 013]
1000 to 10000 | > 100 | – | CC(C)[C@@H](CS(=N)(=O)C(C)C)N1C(=O)[C@@](C)(CC(=O)Nc2ccc(F)cc2Br)C[C@H](c2cccc(Cl)c2)[C@H]1c1ccc(Cl)cc1 (stereo partly drawn) [Compound 014]
< 1000 | 10 to 100 | – | CC(C)[C@@H](CS(=O)(=O)C(C)C)N1C(=O)[C@@](C)(CC(=O)NS(=N)(=O)C2(C)CC2)C[C@H](c2cccc(Cl)c2)[C@H]1c1ccc(Cl)cc1 (stereo partly drawn) [Compound 028A]
< 1000 | < 10 | – | CC(C)[C@@H](CS(=O)(=NC(N)=O)C(C)C)N1C(=O)[C@@](C)(CC(=O)O)C[C@H](c2cccc(Cl)c2)[C@H]1c1ccc(Cl)cc1 (stereo partly drawn) [Compound 034]
< 1000 | < 10 | – | CCN=S(=O)(C[C@H](C(C)C)N1C(=O)[C@@](C)(CC(=O)O)C[C@H](c2cccc(Cl)c2)[C@H]1c1ccc(Cl)cc1)C(C)C (stereo partly drawn) [Compound 035]
< 1000 | 10 to 100 | – | C=CC(=O)N=[S@@](=O)(C[C@H](C(C)C)N1C(=O)[C@@](C)(CC(=O)O)C[C@H](c2cccc(Cl)c2)[C@H]1c1ccc(Cl)cc1)C(C)C [Compound 041]
